# Laboratory results published in publication PMC2719696, “Kinetics and Cellular Site of Glycolipid Loading Control the Outcome of Natural Killer T Cell Activation” (Immunity, 2009).
# Biological target: T1, mCD1d.WT (Mus musculus, UniProt P11609)
# T1 construct: expressed in transfected cells; host or cells: A20 B lymphoma cells (provided by M. Kronenberg)
# T1 sequence (P11609 22-336): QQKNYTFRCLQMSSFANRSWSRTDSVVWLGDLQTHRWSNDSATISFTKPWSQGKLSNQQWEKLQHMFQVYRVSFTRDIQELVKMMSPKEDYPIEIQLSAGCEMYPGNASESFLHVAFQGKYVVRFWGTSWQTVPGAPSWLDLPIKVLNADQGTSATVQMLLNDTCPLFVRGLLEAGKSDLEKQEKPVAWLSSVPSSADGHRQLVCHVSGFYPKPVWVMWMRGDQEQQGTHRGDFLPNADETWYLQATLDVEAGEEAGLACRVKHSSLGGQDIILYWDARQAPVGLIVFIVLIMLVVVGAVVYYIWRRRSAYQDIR
# T1 sequence (P01887 21-119 partner): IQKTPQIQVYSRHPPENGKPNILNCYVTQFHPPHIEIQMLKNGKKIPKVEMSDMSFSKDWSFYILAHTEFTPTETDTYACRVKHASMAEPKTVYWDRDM
# Experiment: iNKT hybridoma DN3A4.1-2 stimulation with A20 cells expressing wild-type mCD1d, IL-2 release
# Format: cell-based
# Conditions: A20 B lymphoma cells expressing mCD1d.WT; compared to all Th2 cell-type cytokine-biasing analogs
# Method: Figure 4 Cell Surface versus Intracellular Loading of mCD1d with Different αGalCer Analogs (A) On the left, surface accumulation of CD1d-αGalCer complexes was studied with JAWS II cells harvested after incubation with the indicated glycolipids for 1, 4, or 16 hr and then stained without permeabilization with mAb L363 (red). Cells were then fixed, stained with DAPI for nuclei visualization (blue), and analyzed by confocal microscopy. On the right, the intracellular formation and trafficking of CD1d-αGalCer complexes were analyzed by treatment of JAWS II cells with αGalCer analogs for 1, 4, and 16 hr followed by fixation and permeabilization. The cells were stained for CD1d-αGalCer complexes (L363, red), late endosomes and lysosomes (anti-LAMP-1, green), and nuclei (DAPI, blue). Results are representative of three separate experiments. The scale bar represents 10 μm. […] Supernatant concentrations of IL-2 release were determined after 12 hr. […]
# For in vitro stimulation, murine iNKT hybridomas at 5 × 10^4 cells/well in 96-well plates were stimulated with an equal number of either JAWS II cells or transfected A20 cells in complete medium with glycolipids for 12 hr at 37°C, and levels of murine IL-2 secretion were determined. […] Subsequently the levels of IL-4, IL-13, and IFN-γ in culture supernatants were quantified by capture ELISA. […]
row,SMILES,relative potency at activating iNKT cells
1,CCCCCCCCCCCCCCCCCCCCCCCC(=O)NC(COC1OC(CO)C(O)C(O)C1O)C(O)C(O)CCCCCCCCCCCCCC (centres unmarked) [αGalCer-C24:0],significantly more potent
2,"CCCCCCCCCCCCCCCCCCCCCCCCCC(=O)NC(COC1OC(CO)C(O)C(O)C1O)C(O)C(O)CCCCCCCCCCCCCC (centres unmarked) [αGalCer-C26:0, reference compound]",significantly more potent
